These results are taken from US8680159B2, “Bradykinin 1 receptor modulating compounds” (Gruenenthal GmbH, priority 2010, dated 2014).

As usually defined, the inhibition is the relative decrease from the control value, in per cent.

The structures appear in SMILES notation.

One assay deals with T1, B1R receptor of the rat (CHO K1 cells stably transfected with the B1R gene of the rat) (Rattus norvegicus, UniProt P97583).
T1 construct: expressed in transfected cells; host or cells: CHO K1 cells (Chinese hamster ovary), stably transfected
T1 sequence (P97583 1-337): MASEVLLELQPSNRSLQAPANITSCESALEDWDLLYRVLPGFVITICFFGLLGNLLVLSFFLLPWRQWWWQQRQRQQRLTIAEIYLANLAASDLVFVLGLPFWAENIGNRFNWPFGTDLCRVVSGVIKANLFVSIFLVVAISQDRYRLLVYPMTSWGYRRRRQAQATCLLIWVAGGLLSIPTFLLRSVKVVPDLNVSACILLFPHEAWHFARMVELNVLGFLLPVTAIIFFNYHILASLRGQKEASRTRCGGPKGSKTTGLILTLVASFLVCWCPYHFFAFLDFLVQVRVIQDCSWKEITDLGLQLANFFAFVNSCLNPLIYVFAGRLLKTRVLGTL
Put plainly: Functional study on the bradykinin receptor 1 (B1R), Ca2+ fluorescence (Fluo-4) FLIPR/Novostar assay, rB1R cells. Conditions: 10 μM. The class given is cell-based. As for the experimental part:
The agonistic or antagonistic action of substances can be quantified on the bradykinin receptor 1 (B1R) of the species human and rat using ectopically expressing cell lines (CHO K1 cells) and with the aid of a Ca^2+-sensitive dye (Fluo-4) using a fluorescent imaging plate reader (FLIPR). The indication in % activation is based on the Ca^2+ signal after addition of Lys-Des-Arg^9-bradykinin (0.5 nM) or Des-Arg^9-bradykinin (100 nM). Antagonists lead to suppression of the Ca^2+ influx after the addition of the agonist. % Inhibition compared with the maximum achievable inhibition is indicated.
The agonistic or antagonistic action of substances can be determined on the bradykinin receptor 1 (B1R) of the species human and rat using the following assay. According to this assay, the increase in intracellular Ca^2+ following administration of a B1R agonist is quantified with the aid of a Ca^2+-sensitive dye (Fluo-4 type, Molecular Probes Europe BV, Leiden, Netherlands) using a Fluorescent Imaging Plate Reader (FLIPR, Molecular Devices, Sunnyvale, USA) and/or using a Novostar (BMG Labtech GmbH, Offenburg, Germany).
Chinese hamster ovary cells (CHO K1 cells) which have been stably transfected with the human B1R gene (hB1R cells) or with the B1R gene of the rat (rB1R cells) are used. For functional studies, the cells are plated out on black 96-well plates having a clear base (BD Biosciences, Heidelberg, Germany or Greiner, Frickenhausen, Germany) in a density of 20,000-35,000 cells/well. The cells are left overnight at 37° C. and with 5% CO2 in culture medium (hB1R cells: Nutrient Mixture Ham's F12, Gibco Invitrogen GmbH, Karlsruhe, Germany or DMEM, Sigma-Aldrich, Taufkirchen, Germany; rB1R cells: D-MEM/F12, Gibco Invitrogen GmbH, Karlsruhe, Germany), with 10 vol. % FBS (fetal bovine serum, Gibco Invitrogen GmbH, Karlsruhe, Germany or PAN Biotech GmbH, Aidenbach, Germany). On the following day, the cells are loaded for 60 minutes at 37° C. with 2.13 μM Fluo-4 (Molecular Probes Europe BV, Leiden, Netherlands) in HBSS buffer (Hank's buffered saline solution, Gibco Invitrogen GmbH, Karlsruhe, Germany) […] (Sigma-Aldrich, Taufkirchen, Germany) and 10 mM HEPES (Sigma-Aldrich, Taufkirchen, Germany). The plates are then washed twice with HBSS buffer, and HBSS buffer additionally containing 0.1% BSA (bovine serum albumin; Sigma-Aldrich, Taufkirchen, Germany), 5.6 mM glucose and 0.05% gelatin (Merck KGaA, Darmstadt, Germany) is added to the plates. After incubation for a further 20 minutes at room temperature, the plates are inserted into the FLIPR or Novostar for Ca^2+ measurement. Alternatively, washing is carried out with buffer A (15 mM HEPES, 80 mM NaCl, 5 mM KCl, 1.2 mM CaCl2, 0.7 mM MgSO4, 2 g/l glucose, 2.5 mM probenecid) followed by loading with buffer A with added 2.5 μM Fluo-4 and 0.025% Pluronic F127 (Sigma-Aldrich, Taufkirchen, Germany). The cells are then washed twice with buffer A and incubated for 30 minutes at room temperature with buffer A additionally containing 0.05% BSA and 0.05% gelatin and are then inserted into the FLIPR or Novostar for Ca^2+ measurement. The Ca^2+-dependent fluorescence is measured before and after the addition of substances (λex=488 nm, λem=540 nm). Quantification is carried out by measuring the highest fluorescence intensity (FC, fluorescence counts) over time.
The FLIPR protocol consists of 2 substance additions, which are pipetted in the FLIPR. In the case of measurements using the Novostar, only the second substance addition is pipetted in the device. Both devices measure the fluorescence intensity over time. Test substances (10 μM) are first pipetted onto the cells and the intracellular Ca^2+ increase is compared with the control (hB1R: Lys-Des-Arg^9-bradykinin>=50 nM; rB1R: Des-Arg^9-bradykinin>=1 μM). This gives the % activation, based on the Ca^2+ signal after addition of Lys-Des-Arg^9-bradykinin (>=50 nM) or Des-Arg^9-bradykinin (>=1 μM). […]
With `CN(C(=O)c1ccc2c(c1)C(NC(=O)c1c(Cl)cccc1C(F)(F)F)CCC2)C1CCN(c2ccncc2)CC1` (stereo not drawn) [CC_H-249, 8-[[2-Chloro-6-(trifluoromethyl)-benzoyl]amino]-N-methyl-N-(1-pyridin-4-yl-piperidin-4-yl)-5,6,7,8-tetrahydro-naphthalene-2-carboxylic acid amide], the “% Inhibition (r-B1R) at 10 μM” value was found to be 110%.

Still in this assay, the particulars now being: CHO-K1, 10 μM, library compounds CC_H, read-out: % Inhibition (r-B1R) at 10 μM.
As for `Cc1cc(N2CCC(N(C)C(=O)c3ccc4c(c3)C(NC(=O)c3ccccc3Cl)CC4)CC2)nc(N(C)C)n1` (stereo not drawn) [CC_H-614, 3-[(2-Chloro-benzoyl)amino]-N-[1-(2-dimethylamino-6-methyl-pyrimidin-4-yl)-piperidin-4-yl]-N-methyl-2,3-dihydro-1H-indene-5-carboxylic acid amide], the inhibition at 10 µM is 101%.

For the molecule `Cc1ncc2n1C(=O)N(C1CCC(N(C)C(=O)c3ccc4c(c3)C(NC(=O)c3ccccc3Cl)CC4)CC1)C2` (stereo not drawn) [CC_H-618, 3-[(2-Chloro-benzoyl)amino]-N-methyl-N-[4-(5-methyl-3-oxo-1,2-dihydro-imidazo[5,1-e]imidazol-2-yl)-cyclohexyl]-2,3-dihydro-1H-indene-5-carboxylic acid amide], the inhibition at 10 µM was determined as 84%.

Regarding `CN(C(=O)c1ccc2c(c1)C(NC(=O)CCC1CCCC1)CC2)C1CCN(c2ccnc(S(C)(=O)=O)n2)CC1` (stereo not drawn) [CC_H-613, 3-(3-Cyclopentyl-propanoylamino)-N-methyl-N-[1-(2-methylsulfonyl-pyrimidin-4-yl)-piperidin-4-yl]-2,3-dihydro-1H-indene-5-carboxylic acid amide], the inhibition at 10 µM came out at 90%.

The same assay, now with this note: CHO-K1, 10 μM, read-out: % Inhibition (r-B1R) at 10 μM.
With `Cc1cc(N2CCC(N(C)C(=O)c3ccc4c(c3)C(N(C)C(=O)Nc3ccccc3Cl)CC4)CC2)cc(C)n1` (stereo not drawn) [CC_H-336, 3-[[(2-Chlorophenyl)-carbamoyl]-methyl-amino]-N-[1-(2,6-dimethyl-pyridin-4-yl)-piperidin-4-yl]-N-methyl-2,3-dihydro-1H-indene-5-carboxylic acid amide], the inhibition at 10 µM was determined as 97%.

With `CN(C(=O)c1ccc2c(c1)C(NC(=O)Nc1ccc(Cl)cc1Cl)CCC2)C1CCN(c2ccncc2)CC1` (stereo not drawn) [CC_H-262, 8-[[(2,4-Dichlorophenyl)-carbamoyl]amino]-N-methyl-N-(1-pyridin-4-yl-piperidin-4-yl)-5,6,7,8-tetrahydro-naphthalene-2-carboxylic acid amide], the inhibition at 10 µM is 82%.

With `CC(=O)N(C)C1CCc2ccc(C(=O)N(C)C3CCN(c4ccncc4)CC3)cc21` (stereo not drawn) [CC_H-215, 3-(Acetyl-methyl-amino)-N-methyl-N-(1-pyridin-4-yl-piperidin-4-yl)-2,3-dihydro-1H-indene-5-carboxylic acid amide], the inhibition at 10 µM amounted to 65%.

`CN(C(=O)c1ccc2c(c1)C(NC(=O)Nc1ccccc1Cl)CC2)C1CCN(c2ccc3cnccc3c2)CC1` (stereo not drawn) [CC_H-365, 3-[[(2-Chlorophenyl)-carbamoyl]amino]-N-(1-isoquinolin-6-yl-piperidin-4-yl)-N-methyl-2,3-dihydro-1H-indene-5-carboxylic acid amide]: the inhibition at 10 µM is 64%.

As to `CN(C(=O)c1ccc2c(c1)C(N(C)C(=O)Nc1cc(Cl)ccc1Cl)CC2)C1CCN(c2ccncc2)CC1` (stereo not drawn) [CC_H-221, 3-[[(2,5-Dichloro-phenyl)-carbamoyl]-methyl-amino]-N-methyl-N-(1-pyridin-4-yl-piperidin-4-yl)-2,3-dihydro-1H-indene-5-carboxylic acid amide], the inhibition at 10 µM came to 67%.

For `COCC(=O)NC1CCc2ccc(C(=O)N(C)C3CCN(c4ccc5cnccc5c4)CC3)cc21` (stereo not drawn) [CC_H-363, N-(1-Isoquinolin-6-yl-piperidin-4-yl)-3-[(2-methoxy-acetyl)amino]-N-methyl-2,3-dihydro-1H-indene-5-carboxylic acid amide], the inhibition at 10 µM was determined as 89%.

Turning to `CN(C(=O)c1ccc2c(c1)C(NC(=O)Nc1cccc(Cl)c1)CC2(C)C)C1CCN(c2ccncc2)CC1` (stereo not drawn) [CC_H-233, 3-[[(3-Chlorophenyl)-carbamoyl]amino]-N,1,1-trimethyl-N-(1-pyridin-4-yl-piperidin-4-yl)-2,3-dihydro-indene-5-carboxylic acid amide], the inhibition at 10 µM was 63%.

With `CC(=O)NC1CCOc2ccc(C(=O)N(C)C3CCN(c4ccncc4)CC3)cc21` (stereo not drawn) [CC_H-277, 4-Acetylamino-N-methyl-N-(1-pyridin-4-yl-piperidin-4-yl)-3,4-dihydro-2H-chromene-6-carboxylic acid amide], the inhibition at 10 µM was determined as 100%.

For `CN(C(=O)c1ccc2c(c1)C(NC(=O)CC(C)(C)C)CCC2)C1CCN(c2ccncc2)CC1` (stereo not drawn) [CC_H-251, 8-(3,3-Dimethyl-butanoylamino)-N-methyl-N-(1-pyridin-4-yl-piperidin-4-yl)-5,6,7,8-tetrahydro-naphthalene-2-carboxylic acid amide], the inhibition at 10 µM turned out to be 111%.

Turning to `CN(C(=O)c1ccc2c(c1)C(NC(=O)Nc1cc(Cl)ccc1Cl)CCC2)C1CCN(c2ccncc2)CC1` (stereo not drawn) [CC_H-259, 8-[[(2,5-Dichloro-phenyl)-carbamoyl]amino]-N-methyl-N-(1-pyridin-4-yl-piperidin-4-yl)-5,6,7,8-tetrahydro-naphthalene-2-carboxylic acid amide], the inhibition at 10 µM came out at 100%.

With `COCC(=O)NC1CCc2ccc(C(=O)N(C)C3CCN(c4cc(C)nc(C)c4)CC3)cc21` (stereo not drawn) [CC_H-300, N-[1-(2,6-Dimethyl-pyridin-4-yl)-piperidin-4-yl]-3-[(2-methoxy-acetyl)amino]-N-methyl-2,3-dihydro-1H-indene-5-carboxylic acid amide], the inhibition at 10 µM was determined as 103%.

Consider `Cc1cc(N2CCC(N(C)C(=O)c3ccc4c(c3)C(NC(=O)Nc3ccc(Cl)cc3C(F)(F)F)CC4)CC2)cc(C)n1` (stereo not drawn) [CC_H-312, 3-[[[4-Chloro-2-(trifluoromethyl)-phenyl]-carbamoyl]amino]-N-[1-(2,6-dimethyl-pyridin-4-yl)-piperidin-4-yl]-N-methyl-2,3-dihydro-1H-indene-5-carboxylic acid amide], for which the inhibition at 10 µM is 92%.

On to `Cc1cc(N2CCC(N(C)C(=O)c3ccc4c(c3)C(NC(=O)Nc3cc(Cl)ccc3Cl)CC4)CC2)cc(C)n1` (stereo not drawn) [CC_H-308, 3-[[(2,5-Dichloro-phenyl)-carbamoyl]amino]-N-[1-(2,6-dimethyl-pyridin-4-yl)-piperidin-4-yl]-N-methyl-2,3-dihydro-1H-indene-5-carboxylic acid amide], for which the inhibition at 10 µM came out at 96%.

For the molecule `Cc1cc(N2CCC(N(C)C(=O)c3ccc4c(c3)C(N(C)C(=O)Nc3cc(Cl)cc(Cl)c3)CC4)CC2)cc(C)n1` (stereo not drawn) [CC_H-341, 3-[[(3,5-Dichloro-phenyl)-carbamoyl]-methyl-amino]-N-[1-(2,6-dimethyl-pyridin-4-yl)-piperidin-4-yl]-N-methyl-2,3-dihydro-1H-indene-5-carboxylic acid amide], the inhibition at 10 µM was determined as 95%.
